Laboratory results reported in patent publication US7468421B2, “Depilatories and agents for external use” (Kao Corporation, priority 1999, dated 2008).
Where no end group is shown, it is not given here.

How the values were obtained:
C3H/HeNCrj mouse = assay: Hair growth test in mice; format: in vivo; conditions: 0.5 mg in 2.5 mL PEG 400/PEG 3350 (95/5), 25 μL/application once a day over 2 weeks, applied to depilated dorsal skin
Protocol: Endothelin-1 (0.5 mg) was dissolved in a mixed solution (2.5 mL) of polyethylene glycol 400 (average molecular weight: 400) and polyethylene glycol 3350 (average molecular weight: 3,350) (mixing ratio: 95/5) to prepare a hair growth inhibitor. Dorsal hair of each 8-week old C3H/HeNCrj mouse was removed with a depilatory cream (over an area of 2×4 cm^2), and the hair growth inhibitor was applied to the depilated site once a day at a dose of 25 μL/application over 2 weeks. A group in which only the solvent was similarly applied was employed as a control group. To observe regrowth of hair, the above-described depilated site on day 14 after the depilation was photographed at a predetermined fixed magnification, and the percentage of a regrown hair area (regrown hair area/depilated area×100) was determined using an image analyzer.

[1] = tested on: endothelin-induced depilation spot; assay: Concurrent administration of endothelin inhibitor on the endothelin-induced formation of depilation spot; format: in vivo, guinea pig; conditions: 10 days after the administration; endothelin-1 0.3 μg, PD142893 10 μg, intracutaneous
Protocol: As described in Example 1, endothelin (0.3 μg) was intracutaneously administered to the dorsal part of each guinea pig, and PD142893 (10 μg) as an endothelin inhibitor was also administered concurrently.
The size of a depilation spot formed 10 days after the administration was determined in terms of a product of its long diameter and short diameter.

[2] = tested on: growth-phase hair follicles; assay: Growth-phase hair follicle inhibitory effects of endothelin, count of hair shafts; format: in vivo, guinea pig; conditions: 1 μg intracutaneously, 50 μL/site, fifth day after the administration
Protocol: Solutions (1 μg, each) of endothelin-1, endothelin-2 and endotherin-3 in aliquots of phosphate buffer solution (PBS), which contained 0.1% of bovine serum albumin (BSA), were intracutaneously administered (at 50 μL/site) to the dorsal parts of guinea pigs, respectively, from which hair had been cut off by a hair clipper. Three days after the administration, hair was again cut off by a hair clipper from the administered sites. Two days after the cutting, the numbers of hair shafts grown per unit area at the administered sites were counted.

[3] = tested on: growth-phase hair follicle; assay: Structural changes of hair follicle structure by the administration of endothelin, hematoxylin-eosin staining; format: in vivo, guinea pig; conditions: 0.3 μg intracutaneously
Protocol: A solution of endothelin-1 (0.3 μg) in phosphate buffer solution (PBS), which contained 1.1% of bovine serum albumin (BSA), was intracutaneously administered (at 50 μL/site) to the dorsal part of a guinea pig. After that, samples were collected day after day from the administered dorsal skin, and tissue samples were prepared by hematoxylin-eosin staining.

[4] = tested on: dorsal part of a guinea pig; assay: Depilation inducing effects of endothelin, intracutaneous administration; format: in vivo; conditions: 0.3 μg intracutaneously, 50 μL/site, 10 days after the administration
Protocol: A solution of endothelin-1 (0.3 μg) in phosphate buffer solution (PBS), which contained 0.1% of bovine serum albumin (BSA), was intracutaneously administered (at 50 μL/site) to the dorsal part of a guinea pig.

[5] = tested on: hair follicle organs in growth phase from a human scalp tissue; assay: Growth inhibitory effects on organ-cultured hair follicles; format: cell-based
Protocol: From a human scalp tissue, hair follicle organs in growth phase were surgically isolated under a stereomicroscope. Following a conventional procedure [Philpott M. P., et al., J. Cell Sci., 97, 463-471 (1990)], the isolated hair follicles were subjected to organ culture. Described specifically, endothelin-1 was added to William's E medium which contained L-glutamine (2 mM), hydrocortisone (10 ng/mL), insulin (10 μg/mL), sodium selenite (10 ng/mL) and transferrin (10 μg/mL).

Compound	Percentage of regrown hair area on day 14 after depilation (C3H/HeNCrj mouse) [%]	Product of long diameter and short diameter of depilation spot (mean ± S.D., N = 6) [1] [mm^2]	number of hair shafts grown per unit area at the administered site [2]	histological image of hair follicle ([3]; 1st day after the administration)	histological image of hair follicle ([3]; 3rd day after the administration)	observation at the administered site (depilation) [4]	percent regression of growth-phase hair follicles ([5]; 10 ng/mL added endothelin, Day 1 of incubation) [%]	percent regression of growth-phase hair follicles ([5]; 10 ng/mL added endothelin, Day 2 of incubation) [%]	percent regression of growth-phase hair follicles ([5]; 10 ng/mL added endothelin, Day 4 of incubation) [%]	percent regression of growth-phase hair follicles ([5]; 10 ng/mL added endothelin, Day 6 of incubation) [%]	percent regression of growth-phase hair follicles ([5]; 100 ng/mL added endothelin, Day 1 of incubation) [%]	percent regression of growth-phase hair follicles ([5]; 100 ng/mL added endothelin, Day 2 of incubation) [%]	percent regression of growth-phase hair follicles ([5]; 100 ng/mL added endothelin, Day 4 of incubation) [%]	percent regression of growth-phase hair follicles ([5]; 100 ng/mL added endothelin, Day 6 of incubation) [%]	grown hair follicle lengths compared with control group ([5]; day 4 of incubation and the subsequent days (FIG. 3))	structural change of incubated hair follicles ([5]; during the incubation period (FIG. 4))
CC[C@H](C)[C@H](NC(=O)[C@H](CC(=O)O)NC(=O)[C@H](CC(C)C)NC(=O)[C@H](Cc1c[nH]cn1)NC(=O)[C@@H]1CSSC[C@H](N)C(=O)N[C@@H](CO)C(=O)N[C@H]2CSSC[C@H](NC(=O)[C@H](CCC(=O)O)NC(=O)[C@H](CCCCN)NC(=O)[C@H](CC(=O)O)NC(=O)[C@H](CCSC)NC(=O)[C@H](CC(C)C)NC(=O)[C@H](CO)NC(=O)[C@H](CO)NC2=O)C(=O)N[C@@H](C(C)C)C(=O)N[C@@H](Cc2ccc(O)cc2)C(=O)N[C@@H](Cc2ccccc2)C(=O)N1)C(=O)N[C@H](C(=O)N[C@@H](Cc1c[nH]c2ccccc12)C(=O)O)[C@@H](C)CC [Endothelin-1, endothelin-1]	2.22	81.47 ± 6.53	significant (p<0.01) decrease in the number of hair shafts	regressed image of a growth-phase hair follicle	image of a follicular tissue in transition phase	hair shaft falling-off and formation of a marked depilation spot	0.0	0.0	17.6	35.3	0.0	0.0	23.5	41.2	significant hair growth inhibitory effects	structural change of the endothelin-treated, growth-phase hair follicles into those similar to resting-phase hair follicles
endothelin-2 (CSCSSWLDKECVYFCHLDIIW; ends and bridges not checked; cysteine pairing not given here; UniProt P20800 49-69, looked up) [peptide composed of 21 amino acid residues; isoform of endothelin]			significant (p<0.01) decrease in the number of hair shafts													
endothelin-3 (CTCFTYKDKECVYYCHLDIIW; ends and bridges not checked; cysteine pairing not given here; UniProt P14138 97-117, looked up) [endotherin-3, peptide composed of 21 amino acid residues; isoform of endothelin]			significant (p<0.01) decrease in the number of hair shafts													
